Assay results reported in ChEMBL document CHEMBL1201862, “PubChem BioAssay data set” (2004).
The source made the active and inactive calls.

Legend:
[1] = biological target: T1, Runt-related transcription factor 1/Core-binding factor subunit beta (Homo sapiens, UniProt Q01196+Q13951); assay: disruptors of Runt domain/CBFb-SMMHC interaction – biochemical, FRET, Cerulean-Runt, Venus-CBFb-SMMHC, uHTS, […] (AID 1434); assay type: protein assay
[2] = biological target: T1, Runt-related transcription factor 1/Core-binding factor subunit beta; assay: Runt domain/CBFb-SMMHC interaction disruptors – biochemical, TR-FRET (AID 1438); assay type: protein assay
Troponin, cardiac muscle = Troponin, cardiac muscle (Homo sapiens, UniProt P19429+P45379+P63316); assay: Fluorescence-based biochemical high throughput dose response assay for activators of the calcium sensitivity of cardiac Regulated Thin Filaments (RTF). [Related pubchem assays (depositor defined):AID493008, AID493018, AID504382, AID504383]; assay type: protein-complex assay
Beta-lactamase [3] = biological target: Beta-lactamase (Pseudomonas aeruginosa, UniProt Q79MP6);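 note: biochemical dose-response test of metallo-beta-lactamase enzyme inhibition, read out by epi-absorbance; purified recombinant IMP-1 metallo-beta-lactamase with nitrocefin as substrate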
Beta-lactamase [4] = biological target: Beta-lactamase (Salmonella choleraesuis (strain SC-B67), UniProt Q5J463)
HeLa = assay: viability loss in HeLa cells – cell-based, 24 h, cherry-picked samples, cytotoxicity control, dose response (AID 504726); assay type: functional; conditions: Homo sapiens;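 note: potency for cytotoxicity as loss of luminescence signal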
ORF 73 = ORF 73 (Human herpesvirus 8, UniProt O40947); assay: KSHV LANA DNA-binding disruption – biochemical, fluorescence polarization, cherry-picked samples, dose response (AID 504725); design: species or system Human gammaherpesvirus 8;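 note: fluorescence polarization of a labeled DNA duplex reporting LANA DNA binding; potency is for inhibitors that block LANA binding to the DNA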
Hexokinase HKDC1 = biological target: T2, Hexokinase HKDC1 (Homo sapiens, UniProt Q2TB90); assay: activation of HKDC1 glucose phosphorylation – biochemical, W721R variant, dose response (AID 504730); assay type: functional
T2 sequence (Q2TB90 whole entry): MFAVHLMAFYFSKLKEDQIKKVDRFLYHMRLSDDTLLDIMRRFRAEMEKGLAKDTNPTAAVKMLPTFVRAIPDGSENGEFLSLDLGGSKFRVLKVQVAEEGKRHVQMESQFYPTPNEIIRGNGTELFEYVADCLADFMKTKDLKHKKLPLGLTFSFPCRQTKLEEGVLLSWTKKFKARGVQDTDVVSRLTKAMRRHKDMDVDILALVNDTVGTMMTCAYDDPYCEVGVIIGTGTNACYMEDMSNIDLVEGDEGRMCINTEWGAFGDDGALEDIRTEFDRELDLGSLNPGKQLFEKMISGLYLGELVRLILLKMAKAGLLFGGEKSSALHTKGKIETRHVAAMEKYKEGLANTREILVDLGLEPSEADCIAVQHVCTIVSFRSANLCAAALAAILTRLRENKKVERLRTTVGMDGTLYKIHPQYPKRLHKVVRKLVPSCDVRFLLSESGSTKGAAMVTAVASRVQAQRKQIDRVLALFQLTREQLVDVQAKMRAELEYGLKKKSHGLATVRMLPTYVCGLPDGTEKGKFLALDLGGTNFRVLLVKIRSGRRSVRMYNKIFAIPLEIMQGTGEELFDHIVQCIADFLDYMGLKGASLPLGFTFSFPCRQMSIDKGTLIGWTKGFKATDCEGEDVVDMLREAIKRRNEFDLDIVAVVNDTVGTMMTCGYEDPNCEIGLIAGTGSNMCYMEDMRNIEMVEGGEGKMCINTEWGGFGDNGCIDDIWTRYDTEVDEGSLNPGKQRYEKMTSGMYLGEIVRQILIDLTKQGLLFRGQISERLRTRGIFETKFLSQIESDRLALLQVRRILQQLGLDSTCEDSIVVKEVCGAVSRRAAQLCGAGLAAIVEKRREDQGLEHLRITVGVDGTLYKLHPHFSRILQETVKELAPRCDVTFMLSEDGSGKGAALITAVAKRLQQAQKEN

[5] = biological target: T3, Voltage-gated N-type calcium channel alpha-1B subunit/Amyloid beta A4 precursor protein-binding family A member 1 (Homo sapiens, UniProt Q00975+Q02410); assay type: protein assay
[6] = biological target: Induced myeloid leukemia cell differentiation protein Mcl-1 (Homo sapiens, UniProt Q07820); assay type: functional
Hexokinase-1 = biological target: T4, Hexokinase-1 (Homo sapiens, UniProt P19367); assay: HK1 enzyme activation by HKDC1 hits – biochemical, selectivity assay for HKDC1 activator project, dose response (AID 504762); assay type: functional
T4 sequence (P19367 whole entry): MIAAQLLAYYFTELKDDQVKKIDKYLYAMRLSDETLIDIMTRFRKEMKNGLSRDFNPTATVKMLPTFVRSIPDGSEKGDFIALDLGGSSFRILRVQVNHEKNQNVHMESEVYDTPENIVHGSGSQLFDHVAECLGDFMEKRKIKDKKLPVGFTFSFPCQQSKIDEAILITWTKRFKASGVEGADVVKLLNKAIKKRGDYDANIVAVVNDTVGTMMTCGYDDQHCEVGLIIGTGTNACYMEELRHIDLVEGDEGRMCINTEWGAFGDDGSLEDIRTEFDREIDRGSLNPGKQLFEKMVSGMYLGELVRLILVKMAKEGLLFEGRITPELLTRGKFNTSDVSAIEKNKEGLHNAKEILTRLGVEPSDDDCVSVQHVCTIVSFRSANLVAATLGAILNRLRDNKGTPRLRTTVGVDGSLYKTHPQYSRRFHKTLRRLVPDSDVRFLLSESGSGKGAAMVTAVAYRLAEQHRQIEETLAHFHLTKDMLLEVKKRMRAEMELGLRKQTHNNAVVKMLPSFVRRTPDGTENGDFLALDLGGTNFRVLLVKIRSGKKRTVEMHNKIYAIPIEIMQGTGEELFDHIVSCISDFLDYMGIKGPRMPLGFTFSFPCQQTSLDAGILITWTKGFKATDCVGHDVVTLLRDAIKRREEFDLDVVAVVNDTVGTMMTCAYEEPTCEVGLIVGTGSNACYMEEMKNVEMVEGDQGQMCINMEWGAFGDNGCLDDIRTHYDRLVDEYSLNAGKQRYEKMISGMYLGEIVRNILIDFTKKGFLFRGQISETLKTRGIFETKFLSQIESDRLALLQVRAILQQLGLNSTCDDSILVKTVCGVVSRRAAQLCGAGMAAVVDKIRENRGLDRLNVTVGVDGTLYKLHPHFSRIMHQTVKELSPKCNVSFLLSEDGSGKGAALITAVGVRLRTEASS

[7] = biological target: T3, Voltage-gated N-type calcium channel alpha-1B subunit/Amyloid beta A4 precursor protein-binding family A member 1; assay type: protein assay; remark: listed apart in the source
[8] = biological target: T5, Kappa-type opioid receptor (Homo sapiens, UniProt P41145); assay: SAR analysis of small molecule antagonists of the kappa opioid receptor via a luminescent beta-arrestin assay - Set 3. [Related pubchem assays (depositor defined):AID1777, AID1778, AID1785, AID1786, AID1966, AID2133, AID2136, AID2285, AID2495]; assay type: functional
[9] = biological target: T5, Kappa-type opioid receptor; assay: SAR analysis of Antagonists of the Kappa Opioid Receptor (KOR) using an Image-Based Assay - Set 3. [Related pubchem assays (depositor defined):AID1777, AID1785]; assay type: functional
[10] = biological target: Delta-type opioid receptor (Homo sapiens, UniProt P41143); assay: SAR Analysis of Antagonists of the DOR Receptor using an Image-Based Assay - Set 3. [Related pubchem assays (depositor defined):AID1777, AID1785]; assay type: functional;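 note: U2OS cells expressing DOR1 and beta-arrestin GFP stimulated with 100 nM SNC80; imaging of GFP-tagged beta-arrestin moving into spots after receptor activation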
Mu-type opioid receptor = Mu-type opioid receptor (Homo sapiens, UniProt P35372); assay: SAR Analysis of Antagonists of the MOR Receptor using an Image-Based Assay - Set 3. [Related pubchem assays (depositor defined):AID1777, AID1785, AID1786, AID1966, AID2133, AID2136, AID2284, AID2285, AID2420]; assay type: functional
INS1 = assay: INS-1E survival protection against cytokine death – cell-based, luminescence, retest, dose response (AID 449756); assay type: functional; conditions: Rattus norvegicus;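 note: cell death triggered by IL-1 beta plus TNF-alpha plus IFN-gamma mixture; protective hits raise ATP signal compared with cytokine alone wells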
[11] = Intein inhibitors as potential Tuberculosis drugs, a cytotoxicity screen. [Related pubchem assays (depositor defined):AID2221, AID2223, AID434968, AID435010, AID449749, AID449750, AID489010]; assay type: functional
[12] = biological target: T6, Replicative DNA helicase DnaB (Mycobacterium tuberculosis, UniProt P9WMR3); assay: DnaB intein splicing inhibitors, dose response, biochemical, cell-free fluorescence (AID 449749); assay type: functional
T6 sequence (P9WMR3 whole entry): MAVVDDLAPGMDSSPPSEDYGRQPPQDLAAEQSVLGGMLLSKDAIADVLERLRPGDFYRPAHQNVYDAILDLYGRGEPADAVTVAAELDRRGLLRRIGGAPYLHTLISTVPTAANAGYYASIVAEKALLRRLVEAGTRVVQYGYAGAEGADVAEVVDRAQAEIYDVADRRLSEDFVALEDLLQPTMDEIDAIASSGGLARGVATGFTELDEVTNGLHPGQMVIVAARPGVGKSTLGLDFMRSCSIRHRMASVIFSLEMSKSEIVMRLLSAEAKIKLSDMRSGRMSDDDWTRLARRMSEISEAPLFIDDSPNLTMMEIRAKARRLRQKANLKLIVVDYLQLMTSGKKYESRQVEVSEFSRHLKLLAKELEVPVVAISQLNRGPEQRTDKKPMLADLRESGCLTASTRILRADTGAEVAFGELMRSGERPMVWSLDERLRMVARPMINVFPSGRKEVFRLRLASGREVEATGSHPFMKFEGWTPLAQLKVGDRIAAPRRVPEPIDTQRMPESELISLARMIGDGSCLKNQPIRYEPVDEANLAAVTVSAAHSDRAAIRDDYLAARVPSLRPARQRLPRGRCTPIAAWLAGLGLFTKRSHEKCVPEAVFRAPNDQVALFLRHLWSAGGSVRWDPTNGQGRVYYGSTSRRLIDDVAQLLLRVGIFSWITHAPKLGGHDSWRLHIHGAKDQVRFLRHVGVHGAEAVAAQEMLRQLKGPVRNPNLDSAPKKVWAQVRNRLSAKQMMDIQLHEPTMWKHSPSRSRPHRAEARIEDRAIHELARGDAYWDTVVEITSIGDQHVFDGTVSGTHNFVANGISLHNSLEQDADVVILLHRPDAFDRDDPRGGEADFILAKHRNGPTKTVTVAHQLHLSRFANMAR

Vero = assay: mammalian cell viability reduction – secondary assay, cytotoxicity control for West Nile virus antiviral project, dose response (AID 1650); assay type: functional; conditions: Chlorocebus sabaeus
[13] = biological target: Sphingosine 1-phosphate receptor 1 (Homo sapiens, UniProt P21453); assay type: functional;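 note: Tango beta-arrestin reporter U2OS cells stimulated with S1P near its EC80; inhibitor potency meaning antagonism of receptor activation by the natural agonist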
[14] = biological target: T7, Sphingosine 1-phosphate receptor 4 (Homo sapiens, UniProt O95977); assay: Fluorescence dose response cell-based high throughput screening assay for antagonists of the Sphingosine 1-Phosphate Receptor 4 (S1P4). [Related pubchem assays: 1524 (Confirmation in triplicates.), 1510 (Primary screen.)]; assay type: functional
T7 sequence (O95977 whole entry): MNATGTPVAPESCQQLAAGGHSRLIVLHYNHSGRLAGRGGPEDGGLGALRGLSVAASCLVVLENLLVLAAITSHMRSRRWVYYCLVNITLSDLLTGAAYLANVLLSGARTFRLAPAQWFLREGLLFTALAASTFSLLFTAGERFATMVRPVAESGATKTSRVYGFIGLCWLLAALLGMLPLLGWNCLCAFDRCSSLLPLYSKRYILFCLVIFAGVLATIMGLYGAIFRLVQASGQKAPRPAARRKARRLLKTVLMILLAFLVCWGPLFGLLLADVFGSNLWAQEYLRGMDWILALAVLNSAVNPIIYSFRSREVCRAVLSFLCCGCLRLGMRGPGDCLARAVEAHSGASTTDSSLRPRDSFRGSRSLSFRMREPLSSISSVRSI

Protein RecA = biological target: T8, Protein RecA (Mycobacterium tuberculosis, UniProt P9WHJ3); assay: Fluorescence Cell-Free Homogeneous Dose Retest to Identify Inhibitors of RecA-Intein Splicing Activity. [Related pubchem assays (depositor defined):AID2097, AID2223, AID489010, AID492950]; assay type: functional
T8 sequence (P9WHJ3 whole entry): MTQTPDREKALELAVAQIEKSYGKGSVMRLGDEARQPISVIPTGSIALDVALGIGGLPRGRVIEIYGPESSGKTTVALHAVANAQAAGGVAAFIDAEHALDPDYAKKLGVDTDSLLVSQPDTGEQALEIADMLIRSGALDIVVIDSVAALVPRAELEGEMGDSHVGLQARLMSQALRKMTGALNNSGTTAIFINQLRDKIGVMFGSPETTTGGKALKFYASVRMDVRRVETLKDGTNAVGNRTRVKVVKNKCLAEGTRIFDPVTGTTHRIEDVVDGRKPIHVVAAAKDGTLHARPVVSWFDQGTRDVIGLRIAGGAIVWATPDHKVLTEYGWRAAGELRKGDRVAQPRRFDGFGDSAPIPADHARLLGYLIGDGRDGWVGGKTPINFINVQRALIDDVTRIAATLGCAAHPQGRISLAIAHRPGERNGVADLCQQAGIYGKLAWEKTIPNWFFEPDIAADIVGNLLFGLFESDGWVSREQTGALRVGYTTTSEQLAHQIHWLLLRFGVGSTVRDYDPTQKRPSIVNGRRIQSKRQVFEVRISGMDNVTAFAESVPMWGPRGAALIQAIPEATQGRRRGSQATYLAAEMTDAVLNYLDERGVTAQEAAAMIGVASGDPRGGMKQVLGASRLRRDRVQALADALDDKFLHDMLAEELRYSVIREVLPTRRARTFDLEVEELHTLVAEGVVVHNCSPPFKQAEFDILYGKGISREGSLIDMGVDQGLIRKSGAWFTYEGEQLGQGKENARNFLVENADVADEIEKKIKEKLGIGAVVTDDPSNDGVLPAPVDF

COc1cccc(-c2nc(-c3ccc4c(c3)-c3ccccc3S4(=O)=O)c(-c3ccccc3)[nH]2)c1OC
IC50 [1]: 33.6 µM (active)
IC50 [2]: > 100 µM (inactive)

O=[N+]([O-])c1ccc(N2CCCCCC2)c2nonc12
EC50 (Troponin, cardiac muscle): 0.413 µM (active)
IC50 (Beta-lactamase [3]): > 59.6 µM (inactive)
IC50 (Beta-lactamase [4]): 22.4 µM (inactive)
AC50 (HeLa): 69.4 µM (active)
AC50 (ORF 73): 54.6 µM (active)

CC(=O)Nc1ccc(C2=NN=C(Nc3ccc(S(=O)(=O)N4CCOCC4)cc3)SC2)cc1
EC50 (Hexokinase HKDC1): 7.92 µM (active)
IC50 [5]: > 50 µM (inactive)
IC50 [6]: 1.61 µM (active)
EC50 (Hexokinase-1): 7.65 µM (active)
IC50 [7]: 13.8 µM (active)

CCc1ccc(S(=O)(=O)NCc2ccc(C(=O)NCCN(C)[C@@H](C)c3ccccc3)cc2)cc1
IC50 [8]: 3.75 µM (active)
IC50 [9]: 0.749 µM (active)
IC50 [10]: > 32 µM (inactive)
IC50 (Mu-type opioid receptor): > 32 µM (inactive)

Cc1c(/C=N/Nc2nc3ccccc3[nH]2)c2ccccc2n1C
AC50 (INS1): 4.83 µM (active)
CC50 [11]: 18.1 µM (active)
AC50 [12]: 3.82 µM (active)
CC50 (Vero): 39.2 µM (active)
IC50 [13]: 6.78 µM (active)
IC50 [14]: 1.76 µM (active)
EC50 (Protein RecA): 1.99 µM (active)
